Experiments:
Format in all cases: in vivo, mouse
ICAM-1 = ICAM-1 expression at the choroid plexus after EAE induction (immunohistochemistry); conditions: wild type mice, day 15 post-EAE induction; 2 mg/kg daily; vs DMSO
Method: Mice were treated with the A2a adenosine receptor antagonist SCH58261 2 mg/kg (1 mg/kg given s.c. and 1 mg/kg given i.p.) in DMSO (n=4 mice/group) or DMSO alone (n=5 mice/group) 1 day prior to and daily up to day 30 following EAE induction. […] Frozen tissue sections from day 15 post-EAE induction in SCH58261 and DMSO treated mice were examined for ICAM-1 expression at the choroid plexus. WT treated DMSO (left) or SCH58261 (right) and stained for ICAM-1 (red staining, white arrows) and DAPI (blue, nuclei) at 40× magnification. Images are from 4 separate mice.
Anesthetized mice were perfused with PBS, and brains, spleens, and spinal cords were isolated and snap frozen in Tissue Tek-OCT medium. […]
(§1) As CD73 catalyzes the breakdown of AMP to adenosine and ARs are expressed in the CNS (Tsutsui et al., “A1 Adenosine Receptor Upregulation and Activation Attenuates Neuroinflammation and Demyelination in a Model of Multiple Sclerosis,” J. Neurosci. 24:1521-1529 (2004)); Rosi et al., The Influence of Brain Inflammation Upon Neuronal Adenosine A2B Receptors,” J. Neurochem. 86:220-227 (2003), which are hereby incorporated by reference in their entirety), it was next determined if AR signaling is important during EAE progression. […] Since CD73 is highly expressed on the choroid plexus (FIG. 6C), it was next determined if ARs are also expressed on the choroid plexus. […]

[1] = tested on: CNS lymphocyte infiltration; test: CD4+ infiltrating lymphocytes in brain and spinal cord after EAE induction (immunohistochemistry); conditions: wild type mice, day 15 post-EAE induction; 2 mg/kg daily; vs DMSO treated mice
Method: FIGS. 7A-7D show adenosine receptor blockade protects mice from EAE development. […] Results are from one experiment (n=5 mice per group). […] Samples were run in triplicate; error bars represent the standard error of the mean. […] Eight anatomically similar fields per brain and 4 fields per spinal cord per mouse were analyzed at 10×magnification (n=4 mice). Error bars represent the standard error of the mean.
Anesthetized mice were perfused with PBS, and brains, spleens, and spinal cords were isolated and snap frozen in Tissue Tek-OCT medium. Five μm sections (brains in a sagittal orientation) were affixed to Supefrost/Plus slides (Fisher), fixed in acetone, and stored at −80° C. […]
as §1

blood brain barrier = test: FITC-Dextran extravasation through the brain endothelium; conditions: wild type mice (FIG. 16)
Method: In order to examine the effects of caffeine, a general adenosine receptor antagonist, on blood brain barrier permeability, mice were fed caffeine for several days and then injected with FITC Dextran, commonly used to assess endothelial permeability.
More particularly, mice were fed 0.6 g/l caffeine (Sigma, St. Louis, Mo.) in water or regular water ad lib for five days. Mice were injected IP with FITC Dextran (10,000 MW, Molecular Probes, Eugene, Oreg.) and after 30 minutes mice were perfused with ice cold PBS via the left ventricle. Brains were removed and snap frozen in OCT (Tissue Tek, Torrance, Calif.) and stored at −80° C. until sectioning. Tissue sections (5 μm) were stained with hematoxylin for light microscopy and with DAPI for a fluorescent counterstain.

EAE-induced mice = test: EAE induction and scoring (MOG35-55/CFA + pertussis toxin); conditions: wild type mice; 2 mg/kg (1 mg/kg s.c. and 1 mg/kg i.p.) in 45% DMSO, 1 day prior to and daily for 30 days; vs DMSO alone
Method: C57BL/6 and tcrα^−/− mice on the C57BL/6 background were purchased from The Jackson Laboratories. Mice were bred and housed under specific pathogen-free conditions at Cornell University or the University of Turku. For adenosine receptor blockade experiments, mice were given drinking water supplemented with 0.6 g/L of caffeine (Sigma) or 2 mg/kg SCH58261 (1 mg/kg s.c. and 1 mg/kg i.p.) in DMSO (45% vol. in PBS) or 45% DMSO alone starting 1 day before EAE induction and continuing throughout the experiment. All procedures performed on mice were approved by the relevant animal review committee.
EAE was induced by subjecting mice to the myelin oligodendrocyte glycoprotein (“MOG”) EAE-inducing regimen as described in Swanborg, “Experimental Autoimmune Encephalomyelitis in Rodents as a Model for Human Demyelinating Disease,” Clin. Immunol. […] Briefly, a 1:1 emulsion of MOG35-55 peptide (3 mg/ml in PBS) (Invitrogen) and complete Freund's adjuvant (CFA, Sigma) was injected subcutaneously (50 μl) into each flank. Pertussis toxin (PTX, 20 ng) (Biological Laboratories Inc.) was given intravenously (200 μl in PBS) at the time of immunization and again 2 days later. Mice were scored daily for EAE based on disease symptom severity; 0=no disease, 0.5 -1=weak/limp tail, 2=limp tail and partial hind limb paralysis, 3=total hind limb paralysis, 4=both hind limb and fore limb paralysis, 5=death. Mice with a score of 4 were euthanized.
Wild type mice were given 1 mg/kg of SCH58261 in DMSO or DMSO alone both i.p. and s.c. (for a total of 2 mg/kg) 1 day prior to EAE induction and daily for 30 days throughout the course of the experiment (FIG. 7C).

Nc1nc2c(cnn2CCc2ccccc2)c2nc(-c3ccco3)nn12 [SCH58261]
ICAM-1 up regulation on the choroid plexus (ICAM-1): prevented the up regulation of ICAM-1 | frequency of CD4 lymphocytes in the brain and spinal cord [1]: significantly lower frequency of CD4 lymphocytes in the brain and spinal cord | FITC-Dextran extravasation across the blood brain barrier (blood brain barrier): inhibit FITC-Dextran extravasation | EAE development (mean EAE score) (EAE-induced mice): dramatically protected against EAE development
